Here are results for two substances from patent publication US4747845A, “Synthetic resin matrix system for the extended delivery of drugs” (priority 1986, dated 1988).

The conditions of series [1]: dog, in vivo.
Description: The derived pharmacokinetic parameters included: 1, time for the maximum concentration to be reduced by 1/2 (t-1/2); 2, area under the plasma concentration curve (AUC); 3, maximum plasma concentration (C-max); 4, time to reach C-max (t-max); 5, mean resident time (MRT); and 6, percent of recovery of administered H3 dose in urine in 72 hours (U%).
Here, determination was made of the release characteristics of the DIMAC synthetic resin matrix system embodied with the drug urapidil fumerate (UPD) following oral administration to conscious dogs, in an identical procedure to that described in EXAMPLE 4.
The UPD dose administered in DIMAC matrix was 10 mg/kg, and the same dose was used in the control solution.
The conditions of series [2]: dog, in vivo, po.
Description: Approximately 75 uCi of isotopically labelled DTZ or UPD was blended into their respective slurry prior to filling the gelatin capsule. The isotopically labelled compositions were allowed to set-up prior to rejoining the filled upper and lower capsule compartments. Curing proceeded overnight, with animal dosing performed at 8:00 a.m. the following morning. The control DIMAC matrix samples without drug were prepared in an identical manner.
Six conscious dogs, three males and three females, one of each sex in three treatment groups were used in this study. The oral dose of DTZ was 30 mg/kg, while that for UPD was 10 mg/kg.
Blood samples were drawn at 0-time immediately prior to dosing, and at 0.5, 1.0, 2.0, 4.0, 6.0, 8.0, 24, and 32 hours after oral administration of the three test preprations. One ml of plasma, suitably prepared was counted for 5-minutes for level of radioactivity (dpm).

As to urapidil fumerate [DIMAC matrix UPD], in series [1], the “magnitude of delayed and extended duration release indices compared with EXAMPLE 3” value is “far less”; the “percent change of t1/2 of DIMAC from solution control” value is recorded as “+40%”; the “statistical significance of change over solution control” value is “statistically significant change in C-max, t-max, MRT, and t-1/2”. Also, in series [1] (4320 min), the “percent change of U % (recovery of administered dose in urine in 72 hours) of DIMAC from solution control” value is listed as “+8%”.
urapidil fumerate [UPD]: in series [2], the “percent of dose released from DIMAC matrix during the 8-hour period” value is “at least 50%”. Moreover, the “time of peak plasma radioactivity” value in series [2] (10 mg/kg) stood at 2 h.
